In patent publication US10266526B2, “Substituted 1,2,3-triazoles as SMYD inhibitors for treating cancer” (EPIZYME, INC., priority 2014, dated 2019):

How the values were obtained:
[1] = tested on: esophageal, liver and breast cancer cell lines; settings: several esophageal, dose-dependent; cited from earlier work
SMYD3 [2] = target: T1, SMYD3 (Homo sapiens (Human), UniProt Q9H7B4); assay: SMYD3 biochemical assay (SMYD3 enzyme assay on MEKK2 protein substrate, 3H-SAM scintillation proximity assay); settings: Table 3A; average of n = 1 to n = 50; read-out: SMYD3 Biochem IC50
In short: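 Native full-length human SMYD3, expressed in E. coli, was preincubated with compound for 30 min at room temperature in 25 mM Tris-Cl pH 8.0, 1 mM TCEP, 0.005% BSG and 0.005% Tween 20. ³H-SAM plus GST-MEKK2 then started the reaction. It was stopped with unlabeled SAM (100 uM final), and methylated MEKK2 was read by SPA.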

SMYD3 [3] = target: T1, SMYD3; assay: SMYD3 cell assay (Trimethyl-MEKK2 In-Cell Western in 293T/17 cells transfected with MEKK2-flag and SMYD3); type: cell-based; settings: Table 3A; average of n = 1 to n = 50; read-out: SMYD3 cell IC50
In short: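 Methanol-fixed cells stained in-cell Western for trimethyl-MEKK2 and anti-flag. Ratio-based % inhibition against DMSO and background controls; IC50 by non-linear regression, triplicate wells.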

T1 sequence (Q9H7B4 whole entry): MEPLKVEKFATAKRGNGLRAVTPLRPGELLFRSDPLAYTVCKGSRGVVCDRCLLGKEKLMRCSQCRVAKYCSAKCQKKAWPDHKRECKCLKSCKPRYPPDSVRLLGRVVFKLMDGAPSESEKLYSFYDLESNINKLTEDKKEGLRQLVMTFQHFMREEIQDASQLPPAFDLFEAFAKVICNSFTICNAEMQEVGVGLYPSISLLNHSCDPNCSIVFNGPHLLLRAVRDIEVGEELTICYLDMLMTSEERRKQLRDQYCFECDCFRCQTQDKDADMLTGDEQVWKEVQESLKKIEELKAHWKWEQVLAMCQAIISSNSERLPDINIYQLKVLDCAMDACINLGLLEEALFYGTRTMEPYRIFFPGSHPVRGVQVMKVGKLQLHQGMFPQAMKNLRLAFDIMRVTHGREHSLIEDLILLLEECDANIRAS

SMILES | proliferation of cancer cell lines [1] | IC50 (SMYD3 [2]) [nM] | IC50 (SMYD3 [3]) [nM]
Cc1cn(CCN2CCN(c3ccccc3-c3cc(C#N)cc(C(=O)NCCCN4CCCC4)c3)CC2)c2ccccc12 [LLY-507] | inhibited the proliferation | – | –
CC(=O)Nc1ccc(S(=O)(=O)N2CCC(NC(=O)c3ccc4c(c3)CC(=O)N4)CC2)cc1 [compound 643, N-(1-((4-acetamidophenyl)sulfonyl)piperidin-4-yl)-2-oxoindoline-5-carboxamide] | – | 16900 | ≥ 10000
NC1CCN(S(=O)(=O)N2[C@@H]3CC[C@H]2C[C@@H](NC(=O)c2cc(C4CC4)no2)C3)CC1 [compound 644, N-((1R,3r,5S)-8-((4-aminopiperidin-1-yl)sulfonyl)-8-azabicyclo[3.2.1]octan-3-yl)-3-cyclopropylisoxazole-5-carboxamide] | – | 18.5 | 257
